From ChEMBL document CHEMBL4219257, “Novel 8-hydroxyquinoline derivatives targeting β-amyloid aggregation, metal chelation and oxidative stress against Alzheimer's disease” (Bioorg Med Chem, 2018)
Calls of active or inactive are those of the source. The calls are words filed in the database; no cut-off is given here.

Experiments:
[1] = molecular target: T1, Amyloid-beta precursor protein (Homo sapiens, UniProt P05067); assay: Inhibition of HFIP-pretreated amyloid beta (1 to 42) (unknown origin) self-induced aggregation at 10 uM after 48 hrs by thioflavin T-based fluorometric assay relative to control
[2] = Antioxidant activity assessed as trolox equivalents of AAPH radical scavenging activity at 10 uM preincubated for 15 mins followed by AAPH addition measured every minute for 120 mins by ORAC-FL assay; format: functional
in vitro = settings: PAMPA
Description: Permeability of the compound at 100 ug/ml after 10 hrs by PAMPA

[3] = molecular target: T1, Amyloid-beta precursor protein; assay: Inhibition of HFIP-pretreated amyloid beta (1 to 42) (unknown origin) self-induced aggregation after 48 hrs by thioflavin T-based fluorometric assay
Mus musculus [4] = assay: Acute toxicity in Kunming mouse assessed as effect on body weight up to 2000 mg/kg, po measured after 4 hrs; format: organism-based; settings: in vivo
[5] = Metal chelating activity assessed as compound-Fe3+ complex formation at 50 uM measured after 20 mins by fluorescence spectroscopic method
Mus musculus [6] = assay: Nephrotoxicity in Kunming mouse up to 2000 mg/kg, po measured after 14 days by macroscopic method; format: toxicity, organism-based; settings: in vivo, 336 h
PC-12 [7] = assay: Cytoprotection against H2O2-induced oxidative stress in rat PC12 cells assessed as increase in cell viability after 24 hrs by MTT assay; format: functional, cell-based
PC-12 [8] = assay: Cytoprotection against rotenone-induced oxidative stress in rat PC12 cells assessed as increase in cell viability up to 10 uM after 24 hrs by MTT assay; format: functional, cell-based
Mus musculus [9] = assay: Acute toxicity in Kunming mouse assessed as fur sleekness up to 2000 mg/kg, po measured after 4 hrs; format: organism-based; settings: in vivo
[10] = Metal chelating activity assessed as mole fraction of compound required to show 2.3:1 stoichiometry for compound-Cu2+ complex at 50 uM by Job's plot analysis
PC-12 [11] = assay: Inhibition of H2O2-induced ROS level in rat PC12 cells assessed as mean fluorescence intensity at 5 uM preincubated for 4 hrs followed by H2O2 addition measured after 24 hrs by DCFH-DA staining based flow cytometry (reference value: 16947); format: functional
PC-12 [12] = assay: Cytoprotection against H2O2-induced apoptosis in rat PC12 cells assessed as live cells at 2.5 uM preincubated for 4 hrs followed by H2O2 addition measured after 24 hrs by Annexin V-FITC/propidium iodide staining based flow cytometry (reference value: 57%); format: functional
PC-12 [13] = assay: Cytoprotection against H2O2-induced apoptosis in rat PC12 cells assessed as live cells at 5 uM preincubated for 4 hrs followed by H2O2 addition measured after 24 hrs by Annexin V-FITC/propidium iodide staining based flow cytometry (reference value: 57%); format: functional
[14] = Metal chelating activity assessed as compound-Zn2+ complex formation at 50 uM measured after 20 mins by fluorescence spectroscopic method
Mus musculus [15] = assay: Acute toxicity in Kunming mouse assessed as effect on food consumption up to 2000 mg/kg, po measured after 4 hrs; format: organism-based; settings: in vivo
PC-12 [16] = assay: Cytoprotection against oligomycin A-induced oxidative stress in rat PC12 cells assessed as increase in cell viability up to 10 uM after 24 hrs by MTT assay; format: functional, cell-based
[17] = Metal chelating activity assessed as compound-Fe2+ complex formation at 50 uM measured after 20 mins by fluorescence spectroscopic method
[18] = Metal chelating activity assessed as compound-Fe2+ complex formation by measuring maximum absorption wavelength at 50 uM measured after 30 mins by UV-vis spectrophotometric method (reference value: 241 nanometer)
PC-12 [19] = assay: Inhibition of H2O2-induced ROS level in rat PC12 cells preincubated for 4 hrs followed by H2O2 addition measured after 24 hrs by DCFH-DA staining based flow cytometry; format: functional, cell-based
PC-12 [20] = assay: Cytoprotection against H2O2-induced apoptosis in rat PC12 cells assessed as late apoptotic cells at 10 uM preincubated for 4 hrs followed by H2O2 addition measured after 24 hrs by Annexin V-FITC/propidium iodide staining based flow cytometry (reference value: 32.6%); format: functional
[21] = Inhibition of Zn2+ - induced amyloid beta (1 to 42) (unknown origin) aggregation at 50 uM after 24 hrs by thioflavin T-based fluorometric assay relative to control
PC-12 [22] = assay: Cytoprotection against H2O2-induced apoptosis in rat PC12 cells assessed as early apoptotic cells at 10 uM preincubated for 4 hrs followed by H2O2 addition measured after 24 hrs by Annexin V-FITC/propidium iodide staining based flow cytometry (reference value: 1.5%); format: functional
[23] = Metal chelating activity assessed as compound-Fe3+ complex formation at 50 uM measured after 30 mins by UV-vis spectrophotometric method
PC-12 [24] = assay: Cytoprotection against H2O2-induced apoptosis in rat PC12 cells assessed as necrotic cells at 5 uM preincubated for 4 hrs followed by H2O2 addition measured after 24 hrs by Annexin V-FITC/propidium iodide staining based flow cytometry (reference value: 8.9%); format: functional
PC-12 [25] = assay: Cytoprotection against H2O2-induced apoptosis in rat PC12 cells assessed as late apoptotic cells at 5 uM preincubated for 4 hrs followed by H2O2 addition measured after 24 hrs by Annexin V-FITC/propidium iodide staining based flow cytometry (reference value: 32.6%); format: functional
[26] = Cytotoxicity against rat PC12 cells assessed as cell viability at 20 uM after 24 hrs by MTT assay relative to control; format: cell-based, PC-12; settings: read-out: Activity
[27] = Metal chelating activity assessed as mole fraction of compound required to show 2:1 stoichiometry for compound-Zn2+ complex at 50 uM by Job's plot analysis
PC-12 [28] = assay: Cytoprotection against H2O2-induced apoptosis in rat PC12 cells assessed as late apoptotic cells at 2.5 uM preincubated for 4 hrs followed by H2O2 addition measured after 24 hrs by Annexin V-FITC/propidium iodide staining based flow cytometry (reference value: 32.6%); format: functional
[29] = Metal chelating activity assessed as compound-Cu2+ complex formation by measuring maximum absorption wavelength at 50 uM measured after 30 mins by UV-vis spectrophotometric method (reference value: 241 nanometer)
PC-12 [30] = assay: Inhibition of H2O2-induced ROS level in rat PC12 cells assessed as mean fluorescence intensity at 2.5 uM preincubated for 4 hrs followed by H2O2 addition measured after 24 hrs by DCFH-DA staining based flow cytometry (reference value: 16947); format: functional
Mus musculus [31] = assay: Acute toxicity in Kunming mouse assessed as death up to 2000 mg/kg, po measured after 4 hrs; format: organism-based; settings: in vivo
Mus musculus [32] = assay: Acute toxicity in Kunming mouse assessed as mortality up to 2000 mg/kg, po measured after 14 days; format: organism-based; settings: in vivo, 336 h
[33] = Metal chelating activity assessed as compound-Zn2+ complex formation by measuring maximum absorption wavelength at 50 uM measured after 30 mins by UV-vis spectrophotometric method (reference value: 241 nanometer)
PC-12 [34] = assay: Cytoprotection against H2O2-induced apoptosis in rat PC12 cells assessed as necrotic cells at 2.5 uM preincubated for 4 hrs followed by H2O2 addition measured after 24 hrs by Annexin V-FITC/propidium iodide staining based flow cytometry (reference value: 8.9%); format: functional
PC-12 [35] = assay: Cytoprotection against H2O2-induced apoptosis in rat PC12 cells assessed as early apoptotic cells at 2.5 uM preincubated for 4 hrs followed by H2O2 addition measured after 24 hrs by Annexin V-FITC/propidium iodide staining based flow cytometry (reference value: 1.5%); format: functional
PC-12 [36] = assay: Inhibition of H2O2-induced ROS level in rat PC12 cells assessed as mean fluorescence intensity at 10 uM preincubated for 4 hrs followed by H2O2 addition measured after 24 hrs by DCFH-DA staining based flow cytometry (reference value: 16947); format: functional
[37] = Metal chelating activity assessed as compound-Cu2+ complex formation at 50 uM measured after 20 mins by fluorescence spectroscopic method
Mus musculus [38] = assay: Cardiotoxicity in Kunming mouse up to 2000 mg/kg, po measured after 14 days by macroscopic method; format: toxicity, organism-based; settings: in vivo, 336 h
PC-12 [39] = assay: Cytoprotection against H2O2-induced apoptosis in rat PC12 cells assessed as early apoptotic cells at 5 uM preincubated for 4 hrs followed by H2O2 addition measured after 24 hrs by Annexin V-FITC/propidium iodide staining based flow cytometry (reference value: 1.5%); format: functional
PC-12 [40] = assay: Cytoprotection against H2O2-induced apoptosis in rat PC12 cells assessed as necrotic cells at 10 uM preincubated for 4 hrs followed by H2O2 addition measured after 24 hrs by Annexin V-FITC/propidium iodide staining based flow cytometry (reference value: 8.9%); format: functional
[41] = Inhibition of Cu2+ - induced amyloid beta (1 to 42) (unknown origin) aggregation at 50 uM after 24 hrs by thioflavin T-based fluorometric assay relative to control
Mus musculus [42] = assay: Acute toxicity in Kunming mouse assessed as effect on water consumption up to 2000 mg/kg, po measured after 4 hrs; format: organism-based; settings: in vivo
PC-12 [43] = assay: Cytoprotection against H2O2-induced apoptosis in rat PC12 cells assessed as live cells at 10 uM preincubated for 4 hrs followed by H2O2 addition measured after 24 hrs by Annexin V-FITC/propidium iodide staining based flow cytometry (reference value: 57%); format: functional
Mus musculus [44] = assay: Hepatotoxicity in Kunming mouse up to 2000 mg/kg, po measured after 14 days by macroscopic method; format: toxicity, organism-based; settings: in vivo, 336 h
PC-12 [45] = assay: Cytoprotection against H2O2-induced oxidative stress in rat PC12 cells assessed as increase in cell viability up to 10 uM after 24 hrs by MTT assay; format: functional, cell-based

T1 sequence (P05067 whole entry): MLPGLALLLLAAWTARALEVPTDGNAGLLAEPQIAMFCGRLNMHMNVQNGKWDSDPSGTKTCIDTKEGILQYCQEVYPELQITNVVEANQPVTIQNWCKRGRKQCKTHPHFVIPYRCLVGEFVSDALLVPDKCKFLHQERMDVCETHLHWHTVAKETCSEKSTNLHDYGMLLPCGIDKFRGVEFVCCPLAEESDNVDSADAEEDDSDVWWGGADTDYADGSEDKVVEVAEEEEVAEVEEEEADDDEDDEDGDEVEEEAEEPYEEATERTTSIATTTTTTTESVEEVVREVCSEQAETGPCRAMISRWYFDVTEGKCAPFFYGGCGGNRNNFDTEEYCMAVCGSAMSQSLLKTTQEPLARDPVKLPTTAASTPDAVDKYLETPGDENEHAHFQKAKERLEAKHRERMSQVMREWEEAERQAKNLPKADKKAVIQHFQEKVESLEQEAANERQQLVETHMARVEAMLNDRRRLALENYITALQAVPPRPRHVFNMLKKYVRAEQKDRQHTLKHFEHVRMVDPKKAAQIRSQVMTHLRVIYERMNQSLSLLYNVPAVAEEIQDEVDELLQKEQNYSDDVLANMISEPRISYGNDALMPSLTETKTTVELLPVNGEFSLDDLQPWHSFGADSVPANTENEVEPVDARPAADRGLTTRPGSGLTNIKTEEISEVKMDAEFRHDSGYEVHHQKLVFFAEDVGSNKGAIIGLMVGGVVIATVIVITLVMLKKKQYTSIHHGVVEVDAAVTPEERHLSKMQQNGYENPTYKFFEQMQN

For `O=C(/C=C/c1ccccc1Cl)N1CCN(Cc2ccc(O)c3ncccc23)CC1`, the inhibition [1] was 61.9%, the Activity [2] was 0.71 equiv and the Papp at 10 h, 100 ug/ml (in vitro) was 6.83 ×10⁻⁶ cm/s. It also gave an IC50 [3] of 7.35 µM.

`Cc1ccccc1/C=C/C(=O)N1CCN(Cc2ccc(O)c3ncccc23)CC1` showed an inhibition [1] of 26.1%, an Activity [2] of 1.52 equiv and an IC50 [3] of 17.3 µM.

`O=C(O)CCc1ccccc1` gave an Activity [2] of 0.86 equiv.

In the case of `O=C(/C=C/c1ccc(F)cc1)N1CCN(Cc2ccc(O)c3ncccc23)CC1`, the inhibition [1] is reported as 49.9%, the Activity [2] is reported as 1.45 equiv and the IC50 [3] is reported as 11.4 µM.

In the case of `O=C(O)/C=C/c1ccccc1`, the Activity [2] is reported as 1.04 equiv.

For `O=C(/C=C/c1ccc([N+](=O)[O-])cc1)N1CCN(Cc2ccc(O)c3ncccc23)CC1`, the inhibition [1] was 13.2% and the Activity [2] was 0.71 equiv.

Work on `COc1ccc(CCC(=O)N2CCN(Cc3ccc(O)c4ncccc34)CC2)cc1OC` yielded an inhibition [1] of 18.3%, an Activity [2] of 3.74 equiv and a Papp at 10 h, 100 ug/ml (in vitro) of 9.67 ×10⁻⁶ cm/s.

In the case of `O=C(CCc1ccc(F)cc1)N1CCN(Cc2ccc(O)c3ncccc23)CC1`, the inhibition [1] is reported as 32.5%, the Activity [2] is reported as 2.32 equiv and the IC50 [3] is reported as 20.6 µM.

With `O=C(CCc1ccccc1Cl)N1CCN(Cc2ccc(O)c3ncccc23)CC1` the Activity (Mus musculus [4]) was “Non-Toxic”, the Activity [5] was “Active” and the Activity (Mus musculus [6]) was “Non-Toxic”. For the same compound, the Activity (PC-12 [7]) was “Dose-dependent effect”, the Activity (PC-12 [8]) was “Active” and the Activity (Mus musculus [9]) was “Non-Toxic”. It also gave an Activity [10] of 0.7 molar ratio, a Flu intensity (PC-12 [11]) of 10332 and an Activity (PC-12 [12]) of 79.9%. The Activity (PC-12 [13]) was 88.3%, the Activity [14] was “Active” and the Activity (Mus musculus [15]) was “Non-Toxic”. The Activity (PC-12 [16]) was “Active”, the Activity [17] was “Active” and the Activity [18] was 265 nm. For the same compound, the inhibition (PC-12 [19]) was “Dose-dependent effect”, the Activity (PC-12 [20]) was 5.8% and the inhibition [21] was 73.3%. For the same compound, the Activity (PC-12 [22]) was 2%, the Activity [23] was “Active” and the Activity (PC-12 [24]) was 1.4%. The Activity (PC-12 [25]) was 8%, the viability at 24 h, 20 µM [26] was 83% and the Activity [27] was 0.66 molar ratio. It also gave an Activity (PC-12 [28]) of 14.4%, an inhibition [1] of 65.8% and an Activity [29] of 261 nm. For the same compound, the Flu intensity (PC-12 [30]) was 14556, the Activity (Mus musculus [31]) was “Non-Toxic” and the Activity (Mus musculus [32]) was “Non-Toxic”. The Activity [2] was 2.63 equiv, the Activity [33] was 260 nm and the Activity (PC-12 [34]) was 3.7%. For the same compound, the Papp at 10 h, 100 ug/ml (in vitro) was 11.1 ×10⁻⁶ cm/s, the Activity (PC-12 [35]) was 2.1% and the Flu intensity (PC-12 [36]) was 9392. The Activity [37] was “Active”, the IC50 [3] was 5.64 µM and the Activity (Mus musculus [38]) was “Non-Toxic”. It also gave an Activity (PC-12 [39]) of 2.3%, an Activity (PC-12 [40]) of 1.3% and an inhibition [41] of 88.9%. For the same compound, the Activity (Mus musculus [42]) was “Non-Toxic”, the Activity (PC-12 [43]) was 90.9% and the Activity (Mus musculus [44]) was “Non-Toxic”.

`O=C(/C=C/c1ccc(Cl)cc1)N1CCN(Cc2ccc(O)c3ncccc23)CC1` gave an inhibition [1] of 25.7%, an Activity [2] of 0.69 equiv and an IC50 [3] of 22.6 µM.

`O=C(CCc1ccc(Cl)cc1)N1CCN(Cc2ccc(O)c3ncccc23)CC1` showed an inhibition [1] of 15.6% and an Activity [2] of 2.57 equiv.

In the case of `Cc1c(C)c2c(c(C)c1O)CCC(C)(C(=O)O)O2` (stereo unspecified), the Activity (PC-12 [45]) is reported as “Active”.
